Assay results: PubChem BioAssay (NCI)
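Five compound concentrations were applied to cells in 96-well plates for 48 hours; endpoints were derived by simple linear interpolation of the resulting dose-response curve. GI50 = concentration required for 50% inhibition of growth. The concentration for full growth arrest is given as TGI.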

Key:
Test in all cases: growth of human tumour cells (NCI), 48 h
U251 CNS = tested on: U251 CNS
HT29 colon = tested on: HT29 colon
RXF 393 renal = tested on: RXF 393 renal
SK-MEL-5 melanoma = tested on: SK-MEL-5 melanoma
LOX IMVI melanoma = tested on: LOX IMVI melanoma
UO-31 renal = tested on: UO-31 renal
RPMI-8226 leukemia = tested on: RPMI-8226 leukemia
SK-MEL-28 melanoma = tested on: SK-MEL-28 melanoma
SF-268 CNS = tested on: SF-268 CNS
T-47D breast = tested on: T-47D breast
BT-549 breast = tested on: BT-549 breast
A498 renal = tested on: A498 renal
HL-60(TB) leukemia = tested on: HL-60(TB) leukemia
SF-539 CNS = tested on: SF-539 CNS
NCI/ADR-RES ovarian = tested on: NCI/ADR-RES ovarian
SK-OV-3 ovarian = tested on: SK-OV-3 ovarian
HOP-92 NSCLC = tested on: HOP-92 NSCLC
K-562 leukemia = tested on: K-562 leukemia
SR leukemia = tested on: SR leukemia
SN12C renal = tested on: SN12C renal
A549 NSCLC = tested on: A549 NSCLC
NCI-H522 lung = tested on: NCI-H522 lung
IGROV1 ovarian = tested on: IGROV1 ovarian
OVCAR-4 ovarian = tested on: OVCAR-4 ovarian
MDA-N = tested on: MDA-N
SF-295 CNS = tested on: SF-295 CNS
UACC-62 melanoma = tested on: UACC-62 melanoma
M14 melanoma = tested on: M14 melanoma
OVCAR-3 ovarian = tested on: OVCAR-3 ovarian
SK-MEL-2 melanoma = tested on: SK-MEL-2 melanoma
HOP-62 NSCLC = tested on: HOP-62 NSCLC
OVCAR-5 ovarian = tested on: OVCAR-5 ovarian
SNB-75 CNS = tested on: SNB-75 CNS
MOLT-4 leukemia = tested on: MOLT-4 leukemia
KM12 colon = tested on: KM12 colon
NCI-H460 lung = tested on: NCI-H460 lung
COLO 205 colon = tested on: COLO 205 colon
DU-145 prostate = tested on: DU-145 prostate
NCI-H23 lung = tested on: NCI-H23 lung
ACHN renal = tested on: ACHN renal
HCC-2998 colon = tested on: HCC-2998 colon
SW-620 colon = tested on: SW-620 colon
CAKI-1 renal = tested on: CAKI-1 renal
HS 578T breast = tested on: HS 578T breast
MDA-MB-435 = tested on: MDA-MB-435
MALME-3M melanoma = tested on: MALME-3M melanoma
786-0 renal = tested on: 786-0 renal
MCF7 breast = tested on: MCF7 breast
EKVX NSCLC = tested on: EKVX NSCLC
NCI-H226 lung = tested on: NCI-H226 lung
HCT-15 colon = tested on: HCT-15 colon
HCT-116 colon = tested on: HCT-116 colon
CCRF-CEM leukemia = tested on: CCRF-CEM leukemia
MDA-MB-231 breast = tested on: MDA-MB-231 breast
OVCAR-8 ovarian = tested on: OVCAR-8 ovarian
PC-3 prostate = tested on: PC-3 prostate
SNB-19 CNS = tested on: SNB-19 CNS
UACC-257 melanoma = tested on: UACC-257 melanoma
TK-10 renal = tested on: TK-10 renal

O=C(Nc1ccccc1)N1CCNC1=S was tested, and the TGI (U251 CNS) was > 100 µM, the TGI (HT29 colon) was > 100 µM and the TGI (RXF 393 renal) was 98.2 µM. The TGI (SK-MEL-5 melanoma) was > 100 µM, the TGI (LOX IMVI melanoma) was > 100 µM and the TGI (UO-31 renal) was > 100 µM. The TGI (RPMI-8226 leukemia) was > 100 µM, the TGI (SK-MEL-28 melanoma) was > 100 µM and the TGI (SF-268 CNS) was > 100 µM. For the same molecule, the TGI (T-47D breast) was > 100 µM, the TGI (BT-549 breast) was > 100 µM and the TGI (A498 renal) was > 100 µM. The TGI (HL-60(TB) leukemia) was > 100 µM, the TGI (SF-539 CNS) was > 100 µM and the TGI (NCI/ADR-RES ovarian) was > 100 µM. The TGI (SK-OV-3 ovarian) was > 100 µM, the TGI (HOP-92 NSCLC) was > 100 µM and the TGI (K-562 leukemia) was > 100 µM. For the same molecule, the TGI (SR leukemia) was > 100 µM, the TGI (SN12C renal) was > 100 µM and the TGI (A549 NSCLC) was > 100 µM. For the same molecule, the TGI (NCI-H522 lung) was > 100 µM, the TGI (IGROV1 ovarian) was > 100 µM and the TGI (OVCAR-4 ovarian) was > 100 µM. For the same molecule, the TGI (MDA-N) was > 100 µM, the TGI (SF-295 CNS) was > 100 µM and the TGI (UACC-62 melanoma) was > 100 µM. The TGI (M14 melanoma) was > 100 µM, the TGI (OVCAR-3 ovarian) was > 100 µM and the TGI (SK-MEL-2 melanoma) was > 100 µM. For the same molecule, the TGI (HOP-62 NSCLC) was > 100 µM, the TGI (OVCAR-5 ovarian) was > 100 µM and the TGI (SNB-75 CNS) was > 100 µM. For the same molecule, the TGI (MOLT-4 leukemia) was > 100 µM, the TGI (KM12 colon) was > 100 µM and the TGI (NCI-H460 lung) was > 100 µM. The TGI (COLO 205 colon) was > 100 µM, the TGI (DU-145 prostate) was > 100 µM and the TGI (NCI-H23 lung) was > 100 µM. The TGI (ACHN renal) was > 100 µM, the TGI (HCC-2998 colon) was 85.8 µM and the TGI (SW-620 colon) was > 100 µM. For the same molecule, the TGI (CAKI-1 renal) was > 100 µM, the TGI (HS 578T breast) was > 100 µM and the TGI (MDA-MB-435) was > 100 µM. The TGI (MALME-3M melanoma) was > 100 µM, the TGI (786-0 renal) was > 100 µM and the TGI (MCF7 breast) was > 100 µM. The TGI (EKVX NSCLC) was > 100 µM, the TGI (NCI-H226 lung) was > 100 µM and the TGI (HCT-15 colon) was > 100 µM. For the same molecule, the TGI (HCT-116 colon) was > 100 µM, the TGI (CCRF-CEM leukemia) was > 100 µM and the TGI (MDA-MB-231 breast) was > 100 µM. For the same molecule, the TGI (OVCAR-8 ovarian) was > 100 µM.

In the case of CC(=O)OCC(OC(C)=O)C(OC(C)=O)C(/C=N/N(C(C)=O)S(=O)(=O)c1ccc(/C=C2\NC(=O)NC2=O)cc1)OC(C)=O (centres undefined), the TGI (U251 CNS) is reported as > 100 µM, the TGI (HT29 colon) is reported as > 100 µM and the TGI (RXF 393 renal) is reported as > 100 µM. The TGI (SK-MEL-5 melanoma) was > 100 µM, the TGI (UO-31 renal) was > 100 µM and the GI50 (RPMI-8226 leukemia) was 0.583 µM. For the same molecule, the TGI (RPMI-8226 leukemia) was > 100 µM, the TGI (SF-268 CNS) was > 100 µM and the TGI (T-47D breast) was > 100 µM. The TGI (BT-549 breast) was > 100 µM, the TGI (A498 renal) was > 100 µM and the TGI (SF-539 CNS) was > 100 µM. The TGI (NCI/ADR-RES ovarian) was > 100 µM, the TGI (SK-OV-3 ovarian) was > 100 µM and the TGI (K-562 leukemia) was > 100 µM. For the same molecule, the TGI (SR leukemia) was > 100 µM, the TGI (SN12C renal) was > 100 µM and the TGI (A549 NSCLC) was > 100 µM. For the same molecule, the TGI (IGROV1 ovarian) was > 100 µM, the TGI (OVCAR-4 ovarian) was > 100 µM and the TGI (MDA-N) was > 100 µM. The TGI (SF-295 CNS) was > 100 µM, the TGI (UACC-62 melanoma) was > 100 µM and the TGI (M14 melanoma) was > 100 µM. For the same molecule, the TGI (PC-3 prostate) was > 100 µM, the TGI (OVCAR-3 ovarian) was > 100 µM and the TGI (SK-MEL-2 melanoma) was > 100 µM. For the same molecule, the TGI (HOP-62 NSCLC) was > 100 µM, the TGI (OVCAR-5 ovarian) was > 100 µM and the TGI (SNB-75 CNS) was > 100 µM. The TGI (MOLT-4 leukemia) was > 100 µM, the TGI (NCI-H460 lung) was > 100 µM and the TGI (COLO 205 colon) was > 100 µM. For the same molecule, the TGI (DU-145 prostate) was > 100 µM, the TGI (NCI-H23 lung) was > 100 µM and the TGI (ACHN renal) was > 100 µM. The TGI (HCC-2998 colon) was > 100 µM, the TGI (SW-620 colon) was > 100 µM and the TGI (CAKI-1 renal) was > 100 µM. For the same molecule, the TGI (SNB-19 CNS) was > 100 µM, the TGI (HS 578T breast) was > 100 µM and the TGI (MDA-MB-435) was > 100 µM. The TGI (UACC-257 melanoma) was > 100 µM, the TGI (MALME-3M melanoma) was > 100 µM and the TGI (786-0 renal) was > 100 µM. For the same molecule, the TGI (MCF7 breast) was > 100 µM, the TGI (EKVX NSCLC) was > 100 µM and the TGI (NCI-H226 lung) was > 100 µM. For the same molecule, the TGI (TK-10 renal) was > 100 µM, the TGI (HCT-15 colon) was > 100 µM and the TGI (HCT-116 colon) was > 100 µM. The TGI (CCRF-CEM leukemia) was > 100 µM, the TGI (MDA-MB-231 breast) was > 100 µM and the TGI (OVCAR-8 ovarian) was > 100 µM.
